According to US11787785B2 (NOVARTIS AG, priority 2021, dated 2023):
Like-named read-outs stand apart in the source and are kept apart here.

Target: T1, WIZ protein (HiBit-WIZ fusion protein) (Homo sapiens, UniProt O95785+Q96SW2)
T1 construct: expressed in transfected cells
Test: Quantification of WIZ protein levels in HiBit tag fusion protein assay (WIZ HiBit assay in 293T cells)
Type: cell-based
Design: remaining activity / Dmax: dose or concentration left out as unconfirmed
Procedure, shortened: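 Luminescence after LgBit complementation quantified remaining HiBit-WIZ in lysates of single-copy stable 293T lines. Cells dosed ~18 h at 37 °C with 10-point, 5-fold dilutions (highest 25 μM); DMSO set to 100%, fitted curve gave % remaining at 25 μM (Amax).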

[1] = HEK-293T, 100 − Amax, at 25 uM; 293T cells; read-out: % degradation of WIZ (100 − Amax)
[2] = HEK-293T, DMSO-normalized, curve-fitted percentage of WIZ-HiBit remaining at 25 uM; 293T cells; read-out: WIZ Amax
[3] = WIZ HiBit assay in 293T cells; 10-point, 5-fold dose response, highest concentration 25 μM, about 18 hours; read-out: WIZ AC50
[4] = HEK-293T, read-out: % degradation of WIZ (100 − Amax)

T1 sequence (O95785 whole entry, the tested form may be a part): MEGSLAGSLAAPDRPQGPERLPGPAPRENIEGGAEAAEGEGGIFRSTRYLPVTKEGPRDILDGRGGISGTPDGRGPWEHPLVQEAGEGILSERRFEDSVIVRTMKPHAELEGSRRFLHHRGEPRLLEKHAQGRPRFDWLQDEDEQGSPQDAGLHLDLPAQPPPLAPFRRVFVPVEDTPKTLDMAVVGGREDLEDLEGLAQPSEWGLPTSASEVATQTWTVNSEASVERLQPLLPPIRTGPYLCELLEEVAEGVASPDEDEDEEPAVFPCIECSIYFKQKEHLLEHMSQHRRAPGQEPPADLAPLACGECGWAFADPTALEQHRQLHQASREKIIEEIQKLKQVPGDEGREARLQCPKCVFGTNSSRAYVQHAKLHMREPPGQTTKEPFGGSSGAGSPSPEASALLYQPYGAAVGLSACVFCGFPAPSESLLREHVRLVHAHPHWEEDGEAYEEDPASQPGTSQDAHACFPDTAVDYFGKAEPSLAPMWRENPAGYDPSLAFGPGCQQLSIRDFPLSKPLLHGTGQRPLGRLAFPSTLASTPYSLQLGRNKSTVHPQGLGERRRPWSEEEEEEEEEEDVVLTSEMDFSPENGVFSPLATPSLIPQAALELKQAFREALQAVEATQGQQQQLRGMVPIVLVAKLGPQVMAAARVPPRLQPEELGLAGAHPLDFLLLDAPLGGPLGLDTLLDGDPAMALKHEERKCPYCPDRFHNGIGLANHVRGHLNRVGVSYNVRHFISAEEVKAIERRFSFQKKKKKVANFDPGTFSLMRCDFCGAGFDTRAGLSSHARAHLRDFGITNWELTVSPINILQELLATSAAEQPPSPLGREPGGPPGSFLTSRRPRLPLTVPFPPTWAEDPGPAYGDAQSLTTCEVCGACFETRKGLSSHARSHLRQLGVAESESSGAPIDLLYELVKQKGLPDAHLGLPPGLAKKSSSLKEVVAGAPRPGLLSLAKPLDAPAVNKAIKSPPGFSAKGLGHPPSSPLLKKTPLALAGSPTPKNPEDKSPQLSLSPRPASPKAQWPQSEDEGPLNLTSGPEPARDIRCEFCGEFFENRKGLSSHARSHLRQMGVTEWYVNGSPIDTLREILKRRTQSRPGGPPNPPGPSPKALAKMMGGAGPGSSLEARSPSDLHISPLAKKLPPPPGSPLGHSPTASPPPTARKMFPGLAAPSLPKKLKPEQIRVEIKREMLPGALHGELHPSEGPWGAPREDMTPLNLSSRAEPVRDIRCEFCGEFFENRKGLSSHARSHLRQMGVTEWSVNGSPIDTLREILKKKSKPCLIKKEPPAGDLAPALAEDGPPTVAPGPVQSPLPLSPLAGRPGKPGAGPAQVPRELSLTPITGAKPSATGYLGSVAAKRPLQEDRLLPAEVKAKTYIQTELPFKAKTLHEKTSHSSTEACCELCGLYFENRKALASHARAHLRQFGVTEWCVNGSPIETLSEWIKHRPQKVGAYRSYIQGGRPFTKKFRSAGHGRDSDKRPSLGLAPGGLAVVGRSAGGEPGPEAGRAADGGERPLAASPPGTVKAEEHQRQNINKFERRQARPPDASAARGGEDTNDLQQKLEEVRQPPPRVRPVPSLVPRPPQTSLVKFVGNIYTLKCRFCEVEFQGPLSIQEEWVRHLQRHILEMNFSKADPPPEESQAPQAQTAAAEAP
T1 sequence (Q96SW2 whole entry, the tested form may be a part): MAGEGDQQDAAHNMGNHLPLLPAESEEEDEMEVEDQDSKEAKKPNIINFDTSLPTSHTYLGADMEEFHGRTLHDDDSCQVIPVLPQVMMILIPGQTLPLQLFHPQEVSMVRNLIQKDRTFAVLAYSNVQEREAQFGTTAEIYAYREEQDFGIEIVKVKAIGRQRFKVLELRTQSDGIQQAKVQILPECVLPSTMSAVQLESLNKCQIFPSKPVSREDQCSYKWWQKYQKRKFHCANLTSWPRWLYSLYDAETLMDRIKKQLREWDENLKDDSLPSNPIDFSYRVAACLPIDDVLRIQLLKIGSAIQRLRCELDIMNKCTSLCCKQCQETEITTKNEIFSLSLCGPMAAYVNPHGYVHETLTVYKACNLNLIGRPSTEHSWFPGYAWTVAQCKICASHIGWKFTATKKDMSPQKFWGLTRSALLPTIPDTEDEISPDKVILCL
T1 sequence (Q16531 whole entry partner, the tested form may be a part): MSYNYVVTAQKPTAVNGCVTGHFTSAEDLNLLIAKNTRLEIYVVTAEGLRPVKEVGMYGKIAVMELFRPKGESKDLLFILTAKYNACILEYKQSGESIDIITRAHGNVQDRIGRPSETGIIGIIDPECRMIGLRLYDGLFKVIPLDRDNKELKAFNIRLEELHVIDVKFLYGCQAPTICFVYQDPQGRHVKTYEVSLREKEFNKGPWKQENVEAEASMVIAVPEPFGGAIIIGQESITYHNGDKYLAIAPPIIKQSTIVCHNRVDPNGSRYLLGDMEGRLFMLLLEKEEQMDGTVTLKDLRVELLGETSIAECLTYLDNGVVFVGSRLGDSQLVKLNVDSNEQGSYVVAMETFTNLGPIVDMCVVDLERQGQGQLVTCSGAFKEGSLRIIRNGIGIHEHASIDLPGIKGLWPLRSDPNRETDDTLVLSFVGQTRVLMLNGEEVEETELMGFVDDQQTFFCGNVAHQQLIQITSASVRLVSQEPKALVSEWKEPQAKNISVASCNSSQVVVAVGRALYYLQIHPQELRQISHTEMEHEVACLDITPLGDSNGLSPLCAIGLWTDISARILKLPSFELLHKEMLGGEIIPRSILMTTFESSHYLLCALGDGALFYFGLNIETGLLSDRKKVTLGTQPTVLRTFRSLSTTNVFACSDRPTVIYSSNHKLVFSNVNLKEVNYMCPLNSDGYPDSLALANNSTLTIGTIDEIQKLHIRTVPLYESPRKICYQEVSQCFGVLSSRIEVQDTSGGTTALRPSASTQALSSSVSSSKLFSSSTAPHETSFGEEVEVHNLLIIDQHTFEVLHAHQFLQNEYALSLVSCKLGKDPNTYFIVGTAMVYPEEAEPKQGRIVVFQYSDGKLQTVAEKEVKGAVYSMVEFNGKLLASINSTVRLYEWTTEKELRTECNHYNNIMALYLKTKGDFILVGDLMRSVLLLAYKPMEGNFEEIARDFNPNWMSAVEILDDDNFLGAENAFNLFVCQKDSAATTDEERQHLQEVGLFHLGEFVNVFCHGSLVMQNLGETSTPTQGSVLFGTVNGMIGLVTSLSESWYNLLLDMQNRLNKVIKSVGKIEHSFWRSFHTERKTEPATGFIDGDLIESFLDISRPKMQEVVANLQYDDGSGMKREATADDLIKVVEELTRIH

SMILES | Dmax at 25 µM [1] | remaining activity at 25 µM [2] | DC50 [3] | Dmax [4] | remaining activity (HEK-293T, read-out: WIZ Amax) | DC50 (read-out: WIZ AC50; WIZ HiBit assay in 293T cells; 10-point, 5-fold dose response, highest concentration 25 μM, about 18 hours)
CC(C)CN1CC[C@H](Cc2ccn3ncc(N4CCC(=O)NC4=O)c3c2)C[C@H]1C [Example 153] | 86% | 14% | 14 nM |  |  | 
CC(C)CN1CCN(Cc2ccn3ncc(N4CCC(=O)NC4=O)c3c2)[C@@H](C)C1 [Example 222] | 64% | 36% | 457 nM |  |  | 
CC(C)CN1CCN(Cc2ccn3ncc(-n4ccc(=O)[nH]c4=O)c3c2)C[C@@H]1C [Example 357, (S)-1-(5-((4-isobutyl-3-methylpiperazin-1-yl)methyl)pyrazolo[1,5-a]pyridin-3-yl)pyrimidine-2,4(1H,3H)-dione] | 85% | 15% | 124 nM |  |  | 
CC(C)CC(C)(C)N1CCC(Cc2ccn3ncc(N4CCC(=O)NC4=O)c3c2)CC1 [Example 139, 1-(5-((1-(2,4-dimethylpentan-2-yl)piperidin-4-yl)methyl)pyrazolo[1,5-a]pyridin-3-yl)dihydropyrimidine-2,4(1H,3H)-dione] | 83% | 17% | 3 nM |  |  | 
O=C1CCN(c2cnn3ccc(CC4CCN(Cc5ccc(F)c(F)c5)CC4)cc23)C(=O)N1 [Example 45, 1-(5-((1-(3,4-difluorobenzyl)piperidin-4-yl)methyl)pyrazolo[1,5-a]pyridin-3-yl)dihydropyrimidine-2,4(1H,3H)-dione] | 70% | 30% | 23 nM |  |  | 
CC(C)CN1CCN(C(C)c2ccn3ncc(N4CCC(=O)NC4=O)c3c2)CC1 (stereo not drawn) [Example 345, 1-(5-(1-(4-isobutylpiperazin-1-yl)ethyl)pyrazolo[1,5-a]pyridin-3-yl)dihydropyrimidine-2,4(1H,3H)-dione] | 73% | 27% | 191 nM |  |  | 
C[C@H]1C[C@H](Cc2ccn3ncc(N4CCC(=O)NC4=O)c3c2)CCN1S(=O)(=O)C1CC1 [Example 286] | 79% | 20% | 31 nM |  |  | 
C[C@H]1CN(Cc2ccn3ncc(N4CCC(=O)NC4=O)c3c2)CCN1CC1CC(F)(F)C1 [Example 205] | 82% | 18% | 24 nM |  |  | 
COc1cccc(CN2CCC(Cc3ccn4ncc(N5CCC(=O)NC5=O)c4c3)CC2)c1 [Example 40, 1-(5-((1-(3-methoxybenzyl)piperidin-4-yl)methyl)pyrazolo[1,5-a]pyridin-3-yl)dihydropyrimidine-2,4(1H,3H)-dione] | 70% | 30% | 52 nM |  |  | 
CCO[C@H]1CC[C@H](CN2CCC(Cc3ccn4ncc(N5CCC(=O)NC5=O)c4c3)CC2)CC1 [Example 266, 1-(5-((1-(((1r,4r)-4-ethoxycyclohexyl)methyl)piperidin-4-yl)methyl)pyrazolo[1,5-a]pyridin-3-yl)dihydropyrimidine-2,4(1H,3H)-dione] | 81% | 19% | 44 nM |  |  | 
CC(C)CN1[C@@H]2CC[C@H]1CC(Cc1ccn3ncc(N4CCC(=O)NC4=O)c3c1)C2 (stereo partly drawn) [Example 67, 1-(5-(((1R,5S)-8-isobutyl-8-azabicyclo[3.2.1]octan-3-yl)methyl)pyrazolo[1,5-a]pyridin-3-yl)dihydropyrimidine-2,4(1H,3H)-dione] | 61% | 39% | 561 nM |  |  | 
COc1cn(-c2cnn3ccc(CN4CCN(CC(C)C)[C@@H](C)C4)cc23)c(=O)[nH]c1=O [Example 360, (S)-1-(5-((4-isobutyl-3-methylpiperazin-1-yl)methyl)pyrazolo[1,5-a]pyridin-3-yl)-5-methoxypyrimidine-2,4(1H,3H)-dione] | 24% | 76% | > 25000 nM |  |  | 
C[C@H]1C[C@H](Cc2ccn3ncc(N4CCC(=O)NC4=O)c3c2)CCN1CCC(F)(F)F [Example 276, 1-(5-(((2S,4R)-2-methyl-1-(3,3,3-trifluoropropyl)piperidin-4-yl)methyl)pyrazolo[1,5-a]pyridin-3-yl)dihydropyrimidine-2,4(1H,3H)-dione] | 84% | 15% | 9 nM |  |  | 
CC(C)C(=O)N1CCN(Cc2ccn3ncc(N4CCC(=O)NC4=O)c3c2)C[C@@H]1C [Example 341, (S)-1-(5-((4-isobutyryl-3-methylpiperazin-1-yl)methyl)pyrazolo[1,5-a]pyridin-3-yl)dihydropyrimidine-2,4(1H,3H)-dione] | 30% | 70% | 799 nM |  |  | 
COc1ccccc1CN1CCC(Cc2ccn3ncc(N4CCC(=O)NC4=O)c3c2)CC1 [Example 122, 1-(5-((1-(2-methoxybenzyl)piperidin-4-yl)methyl)pyrazolo[1,5-a]pyridin-3-yl)dihydropyrimidine-2,4(1H,3H)-dione] | 55% | 45% | 2580 nM |  |  | 
C[C@H]1C[C@@H](Cc2ccn3ncc(N4CCC(=O)NC4=O)c3c2)CCN1CC1CCCCC1 (single isomer, unassigned) [Example 71] | 85% | 15% | 7 nM |  |  | 
C[C@H]1CN(Cc2ccn3ncc(N4CCC(=O)NC4=O)c3c2)CCN1C1CC2(C1)CN(S(C)(=O)=O)C2 [Example 337, (S)-1-(5-((3-methyl-4-(2-(methylsulfonyl)-2-azaspiro[3.3]heptan-6-yl)piperazin-1-yl)methyl)pyrazolo[1,5-a]pyridin-3-yl)dihydropyrimidine-2,4(1H,3H)-dione] | 83% | 17% | 399 nM |  |  | 
C[C@H]1C[C@H](Cc2ccn3ncc(N4CCC(=O)NC4=O)c3c2)CCN1CC1CCO1 (stereo partly drawn) [Example 277, 1-(5-(((2S,4R)-2-methyl-1-(oxetan-2-ylmethyl)piperidin-4-yl)methyl)pyrazolo[1,5-a]pyridin-3-yl)dihydropyrimidine-2,4(1H,3H)-dione] | 76% | 24% | 203 nM |  |  | 
CCN(C)C(=O)N1CC[C@@H](Cc2ccn3ncc(N4CCC(=O)NC4=O)c3c2)C[C@@H]1C [Example 299, (2S,4R)-4-((3-(2,4-dioxotetrahydropyrimidin-1(2H)-yl)pyrazolo[1,5-a]pyridin-5-yl)methyl)-N-ethyl-N,2-dimethylpiperidine-1-carboxamide] |  |  |  | 82% | 18% | 9 nM
Cn1cnc(CN2CCC(Cc3ccn4ncc(N5CCC(=O)NC5=O)c4c3)CC2)c1 [Example 116] | 39% | 61% | 1700 nM |  |  | 
COc1ccnc(N2CCC(Cc3ccn4ncc(N5CCC(=O)NC5=O)c4c3)CC2)n1 [Example 69, 1-(5-((1-(4-methoxypyrimidin-2-yl)piperidin-4-yl)methyl)pyrazolo[1,5-a]pyridin-3-yl)dihydropyrimidine-2,4(1H,3H)-dione] |  |  | 350 nM | 35% | 65% | 

More lines, in order of falling DC50 [3], values ahead:

Dmax at 25 µM [1] | remaining activity at 25 µM [2] | DC50 [3] | SMILES | Dmax [4] | remaining activity (HEK-293T, read-out: WIZ Amax) | DC50 (read-out: WIZ AC50; WIZ HiBit assay in 293T cells; 10-point, 5-fold dose response, highest concentration 25 μM, about 18 hours)
19% | 81% | 2620 nM | C[C@@H]1CN(Cc2ccn3ncc(N4CCC(=O)NC4=O)c3c2)CCN1Cc1cccnc1 [Example 215] |  |  | 
77% | 23% | 2000 nM | CS(=O)(=O)N1CCC(Cc2ccn3ncc(N4CCC(=O)NC4=O)c3c2)CC1 [Example 90] |  |  | 
42% | 58% | 771 nM | O=C1CCN(c2cnn3ccc(CN4CCN(CC(F)(F)C(F)F)CC4)cc23)C(=O)N1 [Example 173] |  |  | 
58% | 42% | 502 nM | CC(C)CN1CCC(F)(Cc2ccn3ncc(N4CCC(=O)NC4=O)c3c2)CC1 [Example 124, 1-(5-((4-fluoro-1-isobutylpiperidin-4-yl)methyl)pyrazolo[1,5-a]pyridin-3-yl)dihydropyrimidine-2,4(1H,3H)-dione] |  |  | 
80% | 20% | 115 nM | O=C1CCN(c2cnn3ccc(CN4CCN(CCC5CCOCC5)CC4)cc23)C(=O)N1 [Example 161] |  |  | 
71% | 29% | 68 nM | C[C@@H]1CN(CC2CCCCC2)CCN1Cc1ccn2ncc(N3CCC(=O)NC3=O)c2c1 [Example 218] |  |  | 
82% | 18% | 23 nM | O=C1CCN(c2cnn3ccc(CC4CCN(CC5CC(F)(F)C5)CC4)cc23)C(=O)N1 [Example 32, 1-(5-((1-((3,3-difluorocyclobutyl)methyl)piperidin-4-yl)methyl)pyrazolo[1,5-a]pyridin-3-yl)dihydropyrimidine-2,4(1H,3H)-dione] |  |  | 
84% | 16% | 19 nM | O=C1CCN(c2cnn3ccc(CC4CCN(CCC5CCC5)CC4)cc23)C(=O)N1 [Example 13, 1-(5-((1-(2-cyclobutylethyl)piperidin-4yl)methyl)pyrazolo[1,5-a]pyridin-3-yl)dihydropyrimidine-2,4(1H,3H)-dione] |  |  | 
88% | 12% | 4 nM | C[C@@H]1CC(CN2CCC(Cc3ccn4ncc(N5CCC(=O)NC5=O)c4c3)CC2)C[C@H](C)O1 (stereo partly drawn) [Example 113] |  |  | 
89% | 11% | 3 nM | O=C1CCN(c2cnn3ccc(CN4CCN(CC56CC7CC(CC(C7)C5)C6)CC4)cc23)C(=O)N1 [Example 194, 1-(5-((4-(((3r,5r,7r)-adamantan-1-yl)methyl)piperazin-1-yl)methyl)pyrazolo[1,5-a]pyridin-3-yl)dihydropyrimidine-2,4(1H,3H)-dione] |  |  | 
